Patent US9757477B2, “Imaging brown adipose tissue with curcumin derivatives” (The General Hospital Corporation, priority 2013, dated 2017)
Where “and” joins values, the source holds several entries; their conditions need not be identical. Equal entries are not always repeated.

Legend:
[1] = Excitation and emission wavelengths of BAT imaging agents; type: physicochemical
Experimental: In some embodiments, the methods include irradiating the mammal with light of the appropriate wavelength to excite the BAT imaging agent, and detecting emissions therefrom.
Fluorescent dyes were purchased from Exciton Inc. (Dayton, Ohio) and Invitrogen. The reagents used for the synthesis were purchased from Aldrich and used without further purification. Column chromatography was performed on silica gel (SiliCycle Inc., 60 Å, […]) slurry packed into glass columns. 1H, 13C NMR spectra were recorded at 500 MHz and 125 MHz respectively, and reported in ppm downfield from tetramethylsilane. Fluorescence studies were carried out using a F-4500 Fluorescence Spectrophotometer (Hitachi). Mass spectra were obtained at Harvard University, Department of Chemistry Instrumentation Facility. Microscopic images were acquired with Nikon Eclipse 50i microscope. In vivo NIR imaging was performed using the IVIS® Spectrum animal imaging system (Caliper LifeSciences, Perkin Elmer, Hopkinton, Mass.), and data analysis was conducted using LivingImage® 4.2.1 software.

interscapular BAT = assay: Top-down whole-organism NIR fluorescence screening of dyes (ROI1/ROI2 contrast); type: in vivo, nude mice; conditions: for visible contrast around the interscapular BAT area: in vivo NIR images; for Ratio AVERAGE (mean ratio ROI1/ROI2): i.v., mean of three filter pairs, hit threshold >1.10
Experimental: 38 fluorescent dyes from commercial resources and from the inventors' laboratory were screened. Dyes with excitation range of 550-745 nm, emission range of 600-840 nm, and with molecular weight of less than 700 Da (except Cy5.5) (representative dyes are listed in FIG. 1d and the full list is shown in Table 2). Their hydrophobicities were not determined. The library was screened by intravenous tail injection of compounds into nude mice (10μg/mouse). Each dye was imaged with three optimized excitation/emission filter-pairs, and images at one hour after i.v. injection were acquired.
Top-down whole organism screening was performed as follows. Nude mice (nu/nu COX7) were purchased from Massachusetts General Hospital and Balb/c mice were from Jackson Laboratory. All animal experimental procedures were approved by the Institutional Animal Care and Use Committee (IACUC) at Massachusetts General Hospital. Dye stock solutions were prepared in DMSO. The final injection solution (0.1 mg/ml) was freshly prepared in a mixed solution of 20% DMSO, 20% Cremophor EL and 60% saline. Nude mice (n=5) were injected with a 100 μL dye solution via tail vein. For each imaging session, mice were anesthetized with a mixture of oxygen and isoflurane for 5 minutes, and then positioned into the imaging chamber of IVIS® Spectrum in vivo pre-clinical imaging system. Images were acquired at one-hour post-injection using sequence imaging with three excitation/emission filter pairs for each dye.
Hits selection was performed as follows. Hits from cell- or protein-based screening are usually selected by setting certain threshold. In the case of the top-down imaging screening, two methods were used (threshold and visible contrast) to select hits. First, three images obtained with three excitation/emission pairs were selected for each dye. These ex/em pairs were selected from the closest excitation and emission wavelengths of the tested dyes. For instance, 605/660 nm, 605/680 nm, 640/680 nm were selected for image acquisition of Nile blue (625/660 nm). The quantification of contrast for each image was calculated as a ratio of two ROIs (region of interest). ROI1 reflected the average signal from interscapular BAT and ROI2 was the average signal of the area that included BAT and white adipose tissue (WAT) around the interscapular site (FIG. 1b, left). The averaged fluorescent signal of ROI was used instead of the total signal, because the total signal depends on the area of ROI, whereas the averaged signal reflects the density of signal. The ratio of ROI1/ROI2 could reflect the signal/noise ratio of the tested probe, and could also reflect the selectivity of the probe for BAT over WAT. For each dye, three ROI1/ROI2 ratios obtained with the three filter pairs were calculated. The mean of the ratios was used as the threshold. If the mean ratio was >1.10, the dye was selected as a potential positive hit (FIG. 1c). Since the contrast of a dye in the top-down screening is in the visible range, the visible contrast around the interscapular BAT area was also tested for the hits with the mean ratio of >1.10. If both mean ratio and the visible contrast were positive, then the hit was subjected to re-testing procedure to validate its reliability as described below.
Although CRANAD-2 and CRANAD-3 were able to provide certain contrast for BAT in vivo, their excitation and emission wavelengths were still shorter than required for an ideal NIR imaging probe (both excitation and emission >640 nm). […] To seek better probes, a sub-library was synthesized based on the structures of the lead probes CRANAD-2 and -3. CRANAD-6, -19, -22, -24, -26, -32 and -43 were synthesized and tested (images and chemical structures, excitation and emission spectra are shown in FIG. 9 a-e). […] However, the ROI1/ROI2 ratio of CRANAD-22 was not improved (FIG. 9c).

[2] = test system: undifferentiated 3T3-L1 cells; assay: Probe uptake in undifferentiated 3T3-L1 cells (IVIS imaging); type: cell-based
Experimental: To investigate the facilitated diffusion of CRANAD-2, the time courses of CRANAD-2 uptake in 3T3-L1 cells were compared before and after differentiation. Two-photon imaging for 3T3-L1 cells was performed as follows. Fibroblast 3T3-L1 cells were differentiated following the protocol provided by Zenbio, Inc. (protocol No. ZBM0009.02). Ten microliters of CRANAD-2 (250 μM in DMSO) was added to the differentiated cells (1.0 ml). Cells were imaged after 10 min of incubation. A 940 nm laser was first used to capture an image for CRANAD-2 in 570-620 nm channel (Prairie Two-photon microscope, Middleton, Wis.). Next, the laser was tuned to 750 nm to capture autofluorescence of the cells to outline cell morphology.
IVIS imaging of 3T3-L1 cells with CRANAD-2 was performed as follows. To a 6-well plate seeded with preadipocytes or differentiated adipocytes, a 10 μL solution of CRANAD-2 (250 μM in DMSO) was added. The plate was subjected to imaging using IVIS imaging system with Ex=605 nm, Em=660 nm before and after addition of CRANAD-2. For triglyceride competition, the same protocol for two-photon imaging was used. The images were acquired at 20 min after addition of CRANAD-2. Studies were performed in triplicate.
The uptake of CRANAD-29 in 3T3-L1 cells before and after differentiation was compared. IVIS imaging of 3T3-L1 cells with CRANAD-29 was performed as follows. To a 6-well plate seeded with preadipocytes or differentiated adipocytes, a 10 μL solution of CRANAD-29 (250 μM in DMSO) was added. The plate was subjected to imaging using IVIS imaging system with Ex=640 nm, Em=700 nm before and after addition of CRANAD-29. For triglyceride competition and Hexarelin inhibition, the similar protocol for CRANAD-2 imaging was used. The final concentration of hexarelin was 12.5 μM, and the images were acquired at 3 hours after addition of CRANAD-29 and triglyceride/Hexarelin. Studies were performed in triplicate.

[3] = nude mice, one hour post-injection

| Emission λ [1] [nm] | Excitation λ [1] [nm] | SMILES | visible contrast around the interscapular BAT area (interscapular BAT) | Ratio No 1 (ROI1/ROI2 average fluorescence intensity) (interscapular BAT; nude mice, 10 μg/mouse i.v., one hour post-injection, first excitation/emission filter pair) | Ratio No 2 (ROI1/ROI2 average fluorescence intensity) (interscapular BAT; nude mice, 10 μg/mouse i.v., one hour post-injection, second excitation/emission filter pair) | Ratio No 3 (ROI1/ROI2 average fluorescence intensity) (interscapular BAT; nude mice, 10 μg/mouse i.v., one hour post-injection, third excitation/emission filter pair) | Ratio AVERAGE (mean ratio ROI1/ROI2) (interscapular BAT; [3]) | time to maximal uptake [2] [min] | uptake in undifferentiated cells over the time course [2] |
| --- | --- | --- | --- | --- | --- | --- | --- | --- | --- |
| 680 | 605 | CN(C)c1ccc(/C=C/C2=CC(=C/C=C3C=CC(=[N+](C)C)C=C3)/O[B-](F)(F)O2)cc1 [CRANAD-2] | best contrast and clear triangular contour | 1.31E+00 | 1.26E+00 | 1.26E+00 | 1.28 and 1.28E+00 | ≤ 1 |  |
| 700 | 640 | F[B-]1(F)OC(/C=C/c2cc3c4c(c2)CCCN4CCC3)=CC(/C=C/c2cc3c4c(c2)CCCN4CCC3)=[O+]1 [CRANAD-29] | excellent contrast and a very clear contour of BAT |  |  |  | 1.36 |  | no apparent uptake |
